What all share (test): NCI tumour cell line growth inhibition, 48 h
For test [1], the system named is 786-0.
Test [2] has as its system A498.
The test system of test [3] is A549.
The test system of test [4] is CCRF-CEM.
Test [5] has as its system COLO 205.
In test [6] the test system is EKVX.
Test [7] deals with HCT-15.
Test [8] relates to KM12.
In test [9] the test system is M14.
For test [10], the system named is Malme-3M.
In test [11] the test system is NCI-H522.
Test [12] concerns OVCAR-3.
For test [13], the system named is OVCAR-4.
Test [14] has as its system RXF 393.
Test [15] deals with SK-MEL-5.
Test [16] relates to SK-OV-3.
The subject of test [17] is SN12C.
The subject of test [18] is SR.
Test [19] relates to UACC-257.
Test [20] has as its system NCI-H226.

The results in this text go back to ChEMBL document CHEMBL1201862, “PubChem BioAssay data set” (2004).

SMILES strings stand for the structures.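 Grown in 96-well plates, cells were treated for 48 hours with each compound at five concentrations. Insufficient inhibition: endpoint recorded as highest concentration tested. Abbreviation: GI50, concentration required for 50% inhibition of growth.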 Calls of active or inactive are those of the source. Rule as the data show it: active = GI50 up to about 1.1 µM and inactive = higher. Some results are limits rather than exact numbers.

In the case of `Cc1ccc(C2(O)c3ccccc3C(=O)N(C)C2(O)c2ccc(C)cc2)cc1` (centres undefined), the GI50 in [1] was 37 µM (inactive); in test [2] it was > 100 µM (inactive); in test [3], > 100 µM (inactive); in test [4] it was 15.4 µM (inactive); in [5], > 100 µM (inactive); in test [6], 32.8 µM (inactive). Further, the GI50 in test [7] is 52 µM; in test [8], 29.9 µM (inactive); in test [9], 62.7 µM (inactive); in test [10] it was > 100 µM (inactive); in test [11] it was > 100 µM (inactive); in [12], > 100 µM (inactive). For the same compound, the GI50 in test [13] was 18.2 µM (inactive); in test [14], 32.3 µM (inactive); in [15], 33.5 µM (inactive); in test [16] it was > 100 µM (inactive); in test [17] it was 58.3 µM (inactive); in test [18], 2.39 µM (inactive). For the same compound, the GI50 in test [19] is > 100 µM (inactive).
As for `COc1ccc(CC2COc3cc(O)cc(O)c3C2=O)cc1O` (centres undefined), the GI50 in test [1] is 9.75 µM (inactive); in test [2], 99.3 µM (inactive); in test [3], 11.9 µM (inactive); in test [4] it was 3.4 µM (inactive); in test [5], 20.4 µM (inactive); in test [6], > 100 µM (inactive). For the same compound, the GI50 was 3.16 µM in test [7]; 2.81 µM (inactive) in test [8]; 3.86 µM (inactive) in test [9]; 4.21 µM (inactive) in test [10]; 4.7 µM (inactive) in [11]; 2.3 µM (inactive) in [12]. Also, the GI50 is 11.8 µM (inactive) in test [13]; 24.5 µM (inactive) in test [14]; 5.13 µM (inactive) in [15]; 5.64 µM (inactive) in [16]; 8.34 µM (inactive) in test [17]; 1.03 µM (active) in [18]. The GI50 in test [19] is > 100 µM (inactive).
Consider `COc1nc2c(N3CCCC3)nc(N3CCNCC3)nc2nc1NCc1ccccc1`, for which the GI50 in test [1] was 1.33 µM (inactive); in test [3], 2.01 µM (inactive); in test [4], 1.58 µM (inactive); in [5] it was 0.524 µM (active); in [6], 2.77 µM (inactive); in test [7], 1.72 µM. Moreover, the GI50 in [8] was 1.61 µM (inactive); in [9] it was 1.65 µM (inactive); in test [10], 2.07 µM (inactive); in test [20], 2.34 µM (inactive); in test [11], 1.09 µM (active); in [12] it was 0.755 µM (active). Besides, the GI50 is 3.03 µM (inactive) in test [13]; 1.28 µM (inactive) in test [14]; 1.53 µM (inactive) in test [15]; 2.05 µM (inactive) in [16]; 2.03 µM (inactive) in [17]; 1.32 µM (inactive) in [18]. Moreover, the GI50 in test [19] is 1.74 µM (inactive).
As for `CN(C)CC(CO)(CN(C)C)CN(C)C`, the GI50 was > 100 µM (inactive) in test [1]; > 100 µM (inactive) in test [3]; > 100 µM (inactive) in test [4]; > 100 µM (inactive) in [5]; > 100 µM (inactive) in [6]; more than 100 µM in test [7]. For the same compound, the GI50 in [8], in test [9], in test [10], in test [20], in test [11] and in test [12] was > 100 µM (inactive) throughout. The GI50 in [13], in test [14], in test [15], in test [16], in [17] and in [18] was > 100 µM (inactive) throughout. In addition, in test [19], the GI50 is > 100 µM (inactive).
As for `CCN(CC)CCn1nc2c3c(c(NCCN)ccc31)Sc1cc(O)ccc1-2`, the GI50 was 0.741 µM (active) in test [1]; 1.36 µM (inactive) in test [2]; 0.176 µM (active) in test [3]; 0.166 µM (active) in test [4]; 0.865 µM (active) in test [5]; 1.4 µM (inactive) in [6]. The GI50 in [7] was 3.03 µM; in test [8], 0.615 µM (active); in test [9] it was 0.455 µM (active); in [10], 1.07 µM (active); in test [11], 0.175 µM (active); in test [12], 2.43 µM (inactive). The GI50 in test [13] was 0.528 µM (active); in test [14], 1.14 µM (inactive); in [15], 0.733 µM (active); in [16] it was 1.25 µM (inactive); in test [17], 0.372 µM (active); in [18] it was 0.201 µM (active). Besides, the GI50 in test [19] is 1.84 µM (inactive).
With `CC1(CO)OC(n2cnc3c(N)ncnc32)C(O)C1O` (centres undefined), the GI50 in test [1] was > 100 µM (inactive); in test [2] it was > 100 µM (inactive); in [3] it was > 100 µM (inactive); in test [4] it was > 100 µM (inactive); in test [5] it was > 100 µM (inactive); in test [7], more than 100 µM. Moreover, the GI50 in test [8], in [9], in test [10], in test [11], in test [12] and in [13] was > 100 µM (inactive) in each case. Moreover, the GI50 in test [14], in test [15], in [16], in [17] and in test [18] was > 100 µM (inactive) in each case.
With `COc1ccc(C(=O)c2c3cc(OC)c(OC)c(OC)c3cc[n+]2C)cc1`, the GI50 was 18.6 µM (inactive) in [1]; 36.7 µM (inactive) in test [2]; 17.8 µM (inactive) in test [3]; 20.9 µM (inactive) in [4]; 55.3 µM (inactive) in test [6]; 30.4 µM (inactive) in [8]. Also, the GI50 in [9] was 29.6 µM (inactive); in test [10], 35 µM (inactive); in test [20], 19.7 µM (inactive); in test [11], 19.2 µM (inactive); in test [14], 39.6 µM (inactive); in [15] it was 17.5 µM (inactive). In addition, the figures for the GI50 in test [16], in test [17] and in [18] were 38.4 µM (inactive), 31.8 µM (inactive) and 14.8 µM (inactive), respectively.
For the compound `CCCCCCCCCCCCNC(=S)OC`, the GI50 was 15.8 µM (inactive) in test [1]; 16.9 µM (inactive) in [2]; 17.5 µM (inactive) in test [3]; 10.5 µM (inactive) in test [4]; 20.7 µM (inactive) in [6]; 14.6 µM in test [7]. Besides, the GI50 in [8] is 15.4 µM (inactive); in test [9], 17.3 µM (inactive); in test [10], 15.5 µM (inactive); in test [11] it was 13.2 µM (inactive); in [13], 19.4 µM (inactive); in [14], 12.8 µM (inactive). The GI50 was 17.3 µM (inactive) in [15]; 16 µM (inactive) in test [16]; 14.3 µM (inactive) in [17]; 3.01 µM (inactive) in test [18]; 16.7 µM (inactive) in [19].
